We go through 23 compounds from patent US20240025912A1 (Merck Sharp & Dohme LLC, priority 2022, published 2024).

The EC50 is the concentration that produces a half-maximal response.

GST-RIPK1 (recombinant GST-RIPK1 kinase domain (residues 1-327)), sequence (Q13546 1-327): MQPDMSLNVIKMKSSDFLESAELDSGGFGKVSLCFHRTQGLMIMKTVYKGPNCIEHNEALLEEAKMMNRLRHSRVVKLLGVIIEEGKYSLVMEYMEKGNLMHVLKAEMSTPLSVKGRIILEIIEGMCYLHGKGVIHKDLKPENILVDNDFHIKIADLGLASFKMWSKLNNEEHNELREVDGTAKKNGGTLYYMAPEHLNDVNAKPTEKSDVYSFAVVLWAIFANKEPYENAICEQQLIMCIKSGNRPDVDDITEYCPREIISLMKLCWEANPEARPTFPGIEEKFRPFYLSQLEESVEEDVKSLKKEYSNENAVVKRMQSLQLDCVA

For the experiment, the target named is GST-RIPK1 (recombinant GST-RIPK1 kinase domain (residues 1-327)) (Homo sapiens (Human), UniProt Q13546). Briefly: RIPK1-ADP-Glo Enzymatic Assay. The following applies: 25 nM GST-RIPK1, 300 μM ATP, 3 μM dephosphorylated-MBP, 30 min pre-incubation, 150 min reaction. Type of experiment: biochemical. The method, then:
The enzymatic activity of RIPK1 is measured using an assay derived from ADP-Glo kit (TMPromega), which provides a luminescent-based ADP detection system. Specifically, the ADP generated by RIPK1 kinase is proportionally detected as luminescent signals in a homogenous fashion. In this context, the assessment of the inhibitory effect of small molecules (EC50) is measured by the effectiveness of the compounds to inhibit the ATP to ADP conversion by RIPK1.
In this assay, the potency (EC50) of each compound was determined from a ten-point (1:3 serial dilution; top compound concentration of 100000 nM) titration curve using the following outlined procedure. To each well of a white ProxiPlus 384 well-plate, 30 nL of compound (1% DMSO in final assay volume of 3 μL) was dispensed, followed by the addition of 2 μL of 1× assay buffer (25 mM Hepes 7.3, 20 mM MgCl2, 50 mM NaCl, 1 mM DTT, 0.005% Tween20, and 0.02% BSA) containing 37.5 nM of GST-RIPK1 (recombinant GST-RIPK1 kinase domain (residues 1-327) enzyme produced from baculovirus-transfected Sf21 cells: MW 62 kDa). Plates were placed in an ambient temperature humidified chamber for a 30 min pre-incubation with compound. Subsequently, each reaction was initiated by the addition of 1 μL 1× assay buffer containing 900 μM ATP and 3 μM dephosphorylated-MBP substrate. The final reaction in each well of 3 μL consists of 25 nM of GST-RIPK1, 300 μM ATP, and 3 μM dephosphorylated-MBP. Kinase reactions were allowed to proceed for 150 min prior to adding ADP-Glo reagents per Promega's outlined kit protocol. Dose-response curves were generated by plotting percent effect (% product conversion; Y-axis) vs. Log 10 compound concentrations (X-axis). EC50 values were calculated using a non-linear regression, four-parameters sigmoidal dose-response model.
Take `O=c1n(C23CC(F)(C2)C3)nc2n1[C@H](c1ccc(C(F)F)cc1)CC2` [Compound 4-10, (S)-5-(4-(difluoromethyl)phenyl)-2-(3-fluorobicyclo[1.1.1]pentan-1-yl)-2,5,6,7-tetrahydro-3H-pyrrolo[2,1-c][1,2,4]triazol-3-one]: the EC50 came to 62.9 nM.
Take `Cc1cncc([C@@H]2CCc3nn(C45CC(Cl)(C4)C5)c(=O)n32)n1` [Compound 1-68]: the EC50 is 59.5 nM.
`O=c1n(C23CC(F)(C2)C3)nc2n1[C@H](c1cccc(Cl)c1)CC2` [Compound 1-63, (S)-5-(3-chlorophenyl)-2-(3-fluorobicyclo[1.1.1]pentan-1-yl)-2,5,6,7-tetrahydro-3H-pyrrolo[2,1-c][1,2,4]triazol-3-one]: the EC50 was determined as 68.1 nM.
Then `O=c1n(C23CC(Cl)(C2)C3)nc2n1[C@H](c1cncc(F)c1)CC2` [Compound 1-15, (5S)-2-(3-chlorobicyclo[1.1.1]pentan-1-yl)-5-(5-fluoropyridin-3-yl)-2,5,6,7-tetrahydro-3H-pyrrolo[2,1-c][1,2,4]triazol-3-one], with 111 nM; and `O=c1n(C23CC(F)(C2)C3)nc2n1[C@H](c1cccc(F)c1)CC2` [Compound 1-16, (S)-2-(3-fluorobicyclo[1.1.1]pentan-1-yl)-5-(3-fluorophenyl)-2,5,6,7-tetrahydro-3H-pyrrolo[2,1-c][1,2,4]triazol-3-one], with 23.1 nM.
As for `CC1Cc2nn(C34CC(C#N)(C3)C4)c(=O)n2C1c1cc(F)cc(F)c1` (single isomer, unassigned) [Compound 1-52, 3-[5-(S or R)-(3,5-difluorophenyl)-6-(S or R)-methyl-3-oxo-6,7-dihydro-3H-pyrrolo[2,1-c][1,2,4]triazol-2(5H)-yl]bicyclo[1.1.1]pentane-1-carbonitrile], the figure is 601 nM; as for `O=c1n(C23CCC(CC2)CC3)nc2n1[C@H](c1cc(F)cc(F)c1)CC2` [Compound 1-25, (5S)-2-(bicyclo[2.2.2]octan-1-yl)-5-(3,5-difluorophenyl)-2,5,6,7-tetrahydro-3H-pyrrolo[2,1-c][1,2,4]triazol-3-one], 685 nM.
Then `N#CC12CC(n3nc4n(c3=O)[C@H](c3cc(F)cc(F)c3)CC4)(C1)C2` [Compound 1-5, 3-[(5S)-5-(3,5-difluorophenyl)-3-oxo-6,7-dihydro-3H-pyrrolo[2,1-c][1,2,4]triazol-2(5H)-yl]bicyclo[1.1.1]pentane-1-carbonitrile], with 14.8 nM.
For `N#CC12CC(n3nc4n(c3=O)[C@H](c3ccccc3F)CC4F)(C1)C2` (single isomer, unassigned) [Compound 6-9, 3-[(5S)-7-(S or R)-fluoro-5-(2-fluorophenyl)-3-oxo-6,7-dihydro-3H-pyrrolo[2,1-c][1,2,4]triazol-2(5H)-yl]bicyclo[1.1.1]pentane-1-carbonitrile], the half-maximal effective concentration (EC50) was 68.9 nM.
For the compound `O=c1n(C23CCC(F)(CC2)C3)nc2n1[C@H](c1cc(F)cc(F)c1)CC2` [Compound 1-3, (5S)-5-(3,5-difluorophenyl)-2-(4-fluorobicyclo[2.2.1]heptan-1-yl)-2,5,6,7-tetrahydro-3H-pyrrolo[2,1-c][1,2,4]triazol-3-one], the EC50 was 34.8 nM.
For `O=c1n(C23CC(F)(C2)C3)nc2n1[C@H](c1cc(F)c(F)c(F)c1)CC2` [Compound 1-76, (S)-2-(3-fluorobicyclo[1.1.1]pentan-1-yl)-5-(3,4,5-trifluorophenyl)-2,5,6,7-tetrahydro-3H-pyrrolo[2,1-c][1,2,4]triazol-3-one], the EC50 turned out to be 27.5 nM.
With `N#CC12CC(n3nc4n(c3=O)[C@H](c3ccccc3)CC4F)(C1)C2` (single isomer, unassigned) [Compound 6-8, 3-[(5S)-7-(S or R)-fluoro-3-oxo-5-phenyl-6,7-dihydro-3H-pyrrolo[2,1-c][1,2,4]triazol-2(5H)-yl]bicyclo[1.1.1]pentane-1-carbonitrile], the half-maximal effective concentration (EC50) amounted to 21.8 nM.
Regarding `N#CC12CC(n3nc4n(c3=O)[C@H](c3ccccc3F)CC4F)(C1)C2` (single isomer, unassigned) [Compound 6-10, 3-[(5S)-7-(S or R)-fluoro-5-(2-fluorophenyl)-3-oxo-6,7-dihydro-3H-pyrrolo[2,1-c][1,2,4]triazol-2(5H)-yl]bicyclo[1.1.1]pentane-1-carbonitrile], the concentration for a half-maximal effect (EC50) turned out to be 18.1 nM.
As for `N#CC12CC(n3nc4n(c3=O)[C@H](c3ccccc3)CC4)(C1)C2` [Compound 1-17, 3-[(5S)-3-oxo-5-phenyl-6,7-dihydro-3H-pyrrolo[2,1-c][1,2,4]triazol-2(5H)-yl]bicyclo[1.1.1]pentane-1-carbonitrile], the figure is 36.9 nM.
Then `O=c1n(C23CC(Cl)(C2)C3)nc2n1[C@H](c1cc(F)cc(F)c1)CC2` [Compound 1-8, (5S)-2-(3-chlorobicyclo[1.1.1]pentan-1-yl)-5-(3,5-difluorophenyl)-2,5,6,7-tetrahydro-3H-pyrrolo[2,1-c][1,2,4]triazol-3-one], with 21.8 nM; and `O=c1n(C23CC(F)(C2)C3)nc2n1[C@H](c1cc(F)c(O)c(F)c1)CC2` [Compound 1-73, (S)-5-(3,5-difluoro-4-hydroxyphenyl)-2-(3-fluorobicyclo[1.1.1]pentan-1-yl)-2,5,6,7-tetrahydro-3H-pyrrolo[2,1-c][1,2,4]triazol-3-one], with 28.2 nM.
In the case of `N#CC12CC(n3nc4n(c3=O)[C@H](c3cnccn3)CC4)(C1)C2` [Compound 4-8, (S)-3-(3-oxo-5-(pyrazin-2-yl)-6,7-dihydro-3H-pyrrolo[2,1-c][1,2,4]triazol-2(5H)-yl)bicyclo[1.1.1]pentane-1-carbonitrile], the 50% effective concentration (EC50) was found to be 165 nM.
Then `O=c1n(C23CC(F)(C2)C3)nc2n1[C@H](c1ccccc1)CCC2` [Compound 1-80, (S)-2-(3-fluorobicyclo[1.1.1]pentan-1-yl)-5-phenyl-5,6,7,8-tetrahydro-[1,2,4]triazolo[4,3-a]pyridin-3(2H)-one], with 73.3 nM; and `O=c1n(C23CC(Cl)(C2)C3)nc2n1[C@H](c1ccccc1)CC2` [Compound 1-41, (5S)-2-(3-chlorobicyclo[1.1.1]pentan-1-yl)-5-phenyl-2,5,6,7-tetrahydro-3H-pyrrolo[2,1-c][1,2,4]triazol-3-one], with 32.9 nM; and `N#CC12CCC(n3nc4n(c3=O)[C@H](c3ccccc3)CC4)(CC1)C2` [Compound 1-30, 4-[(5S)-3-oxo-5-phenyl-6,7-dihydro-3H-pyrrolo[2,1-c][1,2,4]triazol-2(5H)-yl]bicyclo[2.2.1]heptane-1-carbonitrile], with 87.4 nM.
As for `N#Cc1cccc(C2CCc3nn(C45CC(F)(C4)C5)c(=O)n32)c1` (racemic) [Compound 4-3, (±)-3-[2-(3-fluorobicyclo[1.1.1]pentan-1-yl)-3-oxo-2,5,6,7-tetrahydro-3H-pyrrolo[2,1-c][1,2,4]triazol-5-yl]benzonitrile], the figure is 426 nM.
Regarding `O=c1n(C23CC(F)(C2)C3)nc2n1[C@H](c1cc(F)c(Cl)c(F)c1)CC2` [Compound 1-77, (S)-5-(4-chloro-3,5-difluorophenyl)-2-(3-fluorobicyclo[1.1.1]pentan-1-yl)-2,5,6,7-tetrahydro-3H-pyrrolo[2,1-c][1,2,4]triazol-3-one], the concentration for a half-maximal effect (EC50) stood at 16.7 nM.
As for `Cc1cc(F)cc([C@@H]2CCc3nn(C45CC(F)(C4)C5)c(=O)n32)c1` [Compound 4-9, (S)-5-(3-fluoro-5-methylphenyl)-2-(3-fluorobicyclo[1.1.1]pentan-1-yl)-2,5,6,7-tetrahydro-3H-pyrrolo[2,1-c][1,2,4]triazol-3-one], the figure is 17 nM.
